Target: human mGluR5 (Homo sapiens, UniProt P41594)
Experiment: Cell-based functional Ca2+ mobilization assay, potentiation of glutamate EC20 response (H10H cell-line)
Details: H10H cell-line expressing recombinant human mGluR5; for Emax / Emax (%): in presence of glutamate EC20, normalized to maximal glutamate response; for EC50 / pEC50: potentiation in presence of glutamate EC20
Method: Human embryonic kidney (HEK) cells transfected with rat mGluR5 were plated in clear bottom assay plates for assay in a Functional Drug Screening System (FDSS). In the alternative assay, HEK cells transfected with human mGluR5 were plated for assay in the FDSS. In some cases the HEK cells transfected with human mGluR5 are the H10H cell line. Alternatively, the HEK cells transfected with human mGluR5 are the H12H cell line. […] The cells were loaded with a Ca^2+-sensitive fluorescent dye (e.g., Fluo-4), and the plates were washed and placed in the FDSS instrument. After establishment of a fluorescence baseline for about three seconds, the compounds of the present invention were added to the cells, and the response in cells was measured. Five minutes later, an mGluR5 agonist (e.g., glutamate, 3,5-dihydroxyphenylglycine, or quisqualate) was added to the cells, and the response of the cells was measured. Potentiation of the agonist response of mGluR5 by the compounds in the present invention was observed as an increase in response to non-maximal concentrations of agonist (here, glutamate) in the presence of compound compared to the response to agonist in the absence of compound.
The above described assay can be operated in two modes. In the first mode, a range of concentrations of the present compounds were added to cells, followed by a single fixed concentration of agonist. If a compound acted as a potentiator, an EC50 value for potentiation and a maximum extent of potentiation by the compound at this concentration of agonist was determined by non-linear curve fitting. In the second mode, several fixed concentrations of the present compounds were added to various wells on a plate, followed by a range of concentrations of agonist for each concentration of present compound; the EC50 values for the agonist at each concentration of compound were determined by non-linear curve fitting. A decrease in the EC50 value of the agonist with increasing concentrations of the present compounds (a leftward shift of the agonist concentration-response curve) is an indication of the degree of mGluR5 potentiation at a given concentration of the present compound. An increase in the EC50 value of the agonist with increasing concentrations of the present compounds (a rightward shift of the agonist concentration-response curve) is an indication of the degree of mGluR5 antagonism at a given concentration of the present compound. The second mode also indicates whether the present compounds also affect the maximum response to mGluR5 to agonists.
Human mGluR5a cDNA in pCMV6-XL6 mammalian expression plasmid was purchased from OriGene Technologies, Inc. (catalogue number SC326357) and subcloned into pcDNA3.1(−). Human embryonic kidney (HEK) 293A cells were then transfected with human mGluR5a pcDNA3.1(−) using LipofectAmine 2000 (Invitrogen) and monoclones were selected and tested for functional response using a Ca^2+ mobilization assay. Monoclones were named for the species (“H” for human) plus the location on the plate (e.g. “10H”).
HEK cells transfected with the human mGluR5a receptor were plated at 15,000 cells/well in clear-bottomed poly-D-lysine-coated assay plates (BD Falcon) in glutamate-glutamine-free growth medium and incubated overnight at 37° C. and 5% CO2. The cell-line used to obtain the data reported herein was the H10H cell-line expressing the human mGluR5 receptor. Although the H10H cell-line was used to obtain the data shown herein, the H12H cell-line expressing the human mGluR5 receptor can also be used in these assays. The following day, the growth medium was removed and the cells were washed with assay buffer containing 1× Hank's balanced salt solution (Invitrogen, Carlsbad, Calif.), 20 mM HEPES, 2.5 mM probenecid, pH 7.4 and left with 20 μL of this reagent. Following this step, the cells were loaded with calcium indicator dye, fluo-4 AM, to a final concentration of 2 μM and incubated for 40-45 min at 37° C. […]

human mGluR5, sequence (P41594 21-1180 isoform P41594-2 limits assumed): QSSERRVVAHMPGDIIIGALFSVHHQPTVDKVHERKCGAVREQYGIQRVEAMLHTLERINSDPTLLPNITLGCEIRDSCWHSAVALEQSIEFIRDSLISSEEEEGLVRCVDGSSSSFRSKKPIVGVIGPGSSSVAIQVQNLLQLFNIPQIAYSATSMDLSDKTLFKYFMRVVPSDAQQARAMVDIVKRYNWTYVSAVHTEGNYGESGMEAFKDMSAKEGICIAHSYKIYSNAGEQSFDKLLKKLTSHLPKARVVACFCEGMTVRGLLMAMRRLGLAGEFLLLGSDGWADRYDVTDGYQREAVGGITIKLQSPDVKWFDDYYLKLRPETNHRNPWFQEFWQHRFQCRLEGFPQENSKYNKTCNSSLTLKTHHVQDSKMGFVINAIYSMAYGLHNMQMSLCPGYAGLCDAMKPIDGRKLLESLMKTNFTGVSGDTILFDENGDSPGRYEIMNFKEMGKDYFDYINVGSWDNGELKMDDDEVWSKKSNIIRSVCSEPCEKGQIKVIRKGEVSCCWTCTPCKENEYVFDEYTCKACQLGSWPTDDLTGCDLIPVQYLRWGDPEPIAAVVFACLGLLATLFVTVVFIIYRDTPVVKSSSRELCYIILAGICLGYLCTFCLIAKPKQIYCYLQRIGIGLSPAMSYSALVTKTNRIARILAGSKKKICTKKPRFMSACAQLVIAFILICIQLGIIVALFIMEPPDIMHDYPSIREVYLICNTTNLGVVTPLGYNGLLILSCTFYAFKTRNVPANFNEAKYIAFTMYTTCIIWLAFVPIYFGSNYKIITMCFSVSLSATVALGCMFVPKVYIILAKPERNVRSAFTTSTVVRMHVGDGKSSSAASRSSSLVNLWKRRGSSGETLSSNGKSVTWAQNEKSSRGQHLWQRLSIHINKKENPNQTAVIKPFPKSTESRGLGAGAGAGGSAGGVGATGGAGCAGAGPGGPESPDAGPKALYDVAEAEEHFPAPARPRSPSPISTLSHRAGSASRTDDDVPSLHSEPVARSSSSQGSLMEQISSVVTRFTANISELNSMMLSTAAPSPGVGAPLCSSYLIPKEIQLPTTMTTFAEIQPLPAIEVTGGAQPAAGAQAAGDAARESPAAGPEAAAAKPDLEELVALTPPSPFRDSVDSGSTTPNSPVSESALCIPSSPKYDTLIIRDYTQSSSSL

| Emax [%] | EC50 [nM] | pEC50 | Emax (%) | SMILES |
| --- | --- | --- | --- | --- |
| 58 | 3550 |  |  | O=C(CC1CC1)N1CCc2nc(COc3ccccc3)oc2C1 [Example B2, 5-(cyclopropylacetyl)-2-(phenoxymethyl)-4,5,6,7-tetrahydro[1,3]oxazolo[5,4-c]pyridine] |
| 47 | 132 |  |  | O=C(c1cc(F)cc(F)c1)N1CCc2nc(COc3ccccc3)oc2C1 [Example B3, 5-[(3,5-difluorophenyl)carbonyl]-2-(phenoxymethyl)-4,5,6,7-tetrahydro[1,3]oxazolo[5,4-c]pyridine] |
| 76 | 3390 |  |  | O=C(c1ccc(F)cc1)N1CCc2nc(COc3ccccc3)oc2CC1 [Example B4, 6-[(4-fluorophenyl)carbonyl]-2-(phenoxymethyl)-5,6,7,8-tetrahydro-4H-[1,3]oxazolo[4,5-d]azepine] |
| 92 | 501 |  |  | O=C(c1ccc(F)cc1F)N1CCc2nc(COc3ccccc3)oc2C1 [Example B6] |
| 74 | 219 |  |  | O=C(c1ccc(F)cc1)N1CCc2nc(COc3cccc(F)c3)oc2C1 [Example B8, 5-(4-fluorobenzoyl)-2-[(3-fluorophenoxy)methyl]-4,5,6,7-tetrahydro-oxazolo[5,4-c]pyridine] |
| 68 | 490 |  |  | O=C(c1ccccc1F)N1CCc2nc(COc3ccccc3)oc2C1 [Example B9] |
| 75 |  | 6.18 |  | O=C(c1ccc(F)cc1)N1CCc2nc(COc3ccc(F)cc3)oc2C1 [Example B10] |
| 60 |  | 6.19 |  | O=C(c1ccc(F)cc1)N1CCc2nc(COc3ccc(F)c(F)c3)oc2C1 [Example B11] |
|  |  | 6.06 | 69 | O=C(c1ccc(F)cc1F)N1CCc2nc(COc3ccccc3)sc2C1 [Example B12] |
| 68 | 1150 |  |  | O=C(c1ccc(F)cc1)N1CCc2nc(COc3ccccc3F)oc2C1 [Example B13] |
| 48 | 1550 |  |  | O=C(c1ccc(F)cc1)N1CCc2nc(/C=C/c3ccccc3)oc2C1 [Example B14] |
|  |  | 6.43 | 74 | O=C(c1cccc(F)c1F)N1CCc2nc(COc3ccccc3)oc2C1 [Example B15] |
| 82 | 372 |  |  | O=C(c1c(F)cccc1F)N1CCc2nc(COc3ccccc3)oc2C1 [Example B16] |
|  |  | 6.60 | 86 | O=C(c1ccc(F)c(F)c1)N1CCc2nc(COc3ccccc3)oc2C1 [Example B17] |
|  |  | 5.33 | 69 | O=C(c1cccnc1)N1CCc2nc(COc3ccccc3)oc2C1 [Example B18] |
| 69 | 4790 |  |  | O=C(c1ccncc1)N1CCc2nc(COc3ccccc3)oc2C1 [Example B19] |
|  |  | 5.82 | 72 | O=C(OCc1ccccc1)N1CCc2nc(COc3ccccc3)oc2C1 [Example B20] |
|  |  | 6.05 | 81 | O=C(c1ccc(F)cc1)N1Cc2nc(COc3ccccc3)oc2C1 [Example B21] |
| 65 | 1620 |  |  | O=C(c1ccc(F)cc1)N1CCc2oc(COc3ccccc3)nc2C1 [Example B22] |
|  |  | <5 | 54 | O=C(c1ccccn1)N1CCc2nc(COc3ccccc3)oc2C1 [Example B23] |
| 53 | > 10000 |  |  | CC(=O)N1CCc2nc(COc3ccccc3)oc2C1 [Example B24] |
|  |  | 6.35 | 83 | O=C(c1ccc(F)cc1)N1CCCc2nc(COc3ccccc3)sc2C1 [Example B25] |
|  |  | 6.24 | 72 | O=C(c1cccc(F)c1F)N1CCc2nc(COc3cccc(F)c3)oc2C1 [Example B28] |
|  |  | 6.62 | 75 | O=C(c1ccc(F)c(F)c1)N1CCc2nc(COc3cccc(F)c3)oc2C1 [Example B29] |
| 47 | 1820 |  |  | O=C(c1ccc(F)cc1)N1CCc2nc(/C=C/c3ccccc3)oc2CC1 [Example B31, 6-(4-fluorobenzoyl)-5,6,7,8-tetrahydro-2-[(E)-2-phenylethenyl]-4H-oxazolo[4,5-d]azepine] |

| Emax [%] | EC50 [nM] | pEC50 | Emax (%) | SMILES |
| --- | --- | --- | --- | --- |
| 39 | 3020 |  |  | O=C(C1CC1)N1CCc2nc(COc3ccccc3)oc2C1 [Example B32] |
| 69 | 2000 |  |  | Cc1ccnc(OCc2nc3c(o2)CN(C(=O)c2ccc(F)cc2)CC3)c1 [Example B33, 5-[(4-fluorophenyl)carbonyl]-2-{[(4-methylpyridin-2-yl)oxy]methyl}-4,5,6,7-tetrahydro[1,3]oxazolo[5,4-c]pyridine] |
| 56 | 501 |  |  | Cn1c(C(=O)N2CCc3nc(COc4ccccc4)oc3C2)cc2ccccc21 [Example B36, 5-[(1-methyl-1H-indol-2-yl)carbonyl]-2-(phenoxymethyl)-4,5,6,7-tetrahydro[1,3]oxazolo[5,4-c]pyridine] |
| 57 | 2400 |  |  | Cc1ccccc1OCc1nc2c(o1)CN(C(=O)c1ccc(F)cc1)CC2 [Example B37] |
| 60 | 4070 |  |  | O=C(c1ncc(F)cc1F)N1CCc2nc(COc3ccccc3)oc2C1 [Example B38] |
| 50 | 6030 |  |  | Cc1ncccc1C(=O)N1CCc2nc(COc3ccccc3)oc2C1 [Example B41] |
|  |  | <5 | 58 | Cc1cccnc1C(=O)N1CCc2nc(COc3ccccc3)oc2C1 [Example B42] |
|  |  | 5.7 | 64 | Cc1cccc(C(=O)N2CCc3nc(COc4ccccc4)oc3C2)n1 [Example B44] |
|  |  | 5.51 | 66 | O=C(c1ccc(F)cn1)N1CCc2nc(COc3cccc(F)c3)oc2C1 [Example B45] |
| 63 | 1620 |  |  | N#Cc1ccccc1C(=O)N1CCc2nc(COc3ccccc3)oc2C1 [Example B46] |
| 56 | > 10000 |  |  | O=C(c1ncccc1F)N1CCc2nc(COc3ccccc3)oc2C1 [Example B47] |
|  |  | 5.49 | 62 | O=C(c1ccc(F)cc1)N1CCc2nc(COc3cncc(F)c3)oc2C1 [Example B48] |
|  |  | 6.43 | 57 | N#Cc1cc(F)cc(C(=O)N2CCc3nc(COc4ccccc4)oc3C2)c1 [Example B50] |
|  |  | 5.92 | 61 | O=C(Cc1ccc(F)cc1)N1CCc2nc(COc3ccccc3)oc2C1 [Example B51] |
|  |  | 5.24 | 51 | O=C(c1ccc(S(F)(F)(F)(F)F)cc1)N1CCc2nc(COc3ccccc3)oc2C1 [Example B52] |
| 66.5 | 1260 |  |  | N#Cc1cccc(OCc2nc3c(o2)CN(C(=O)c2ccc(F)cc2)CC3)c1 [Example B53] |
| 24 | 4170 |  |  | CC(C)(C)[C@H](N)C(=O)N1CCc2nc(COc3ccccc3)oc2C1 [Example B54] |
| 14 |  |  |  | CC(C)(C)OCC(=O)N1CCc2nc(COc3ccccc3)oc2C1 [Example B55] |
|  |  | <5 | 50 | O=C(c1cn[nH]c1)N1CCc2nc(COc3ccccc3)oc2C1 [Example B56] |
|  |  | 7.14 | 57 | O=C(c1ccc(Cl)o1)N1CCc2nc(COc3ccccc3)oc2C1 [Example B57] |
| 31 | 603 |  |  | O=C(c1ccc[nH]1)N1CCc2nc(COc3ccccc3)oc2C1 [Example B58] |
| 40.5 | 2950 |  |  | O=C(c1cnco1)N1CCc2nc(COc3ccccc3)oc2C1 [Example B59] |
| 39.5 | 2000 |  |  | O=C(c1ncco1)N1CCc2nc(COc3ccccc3)oc2C1 [Example B60] |
| 52.5 | 302 |  |  | Cc1ccc(C(=O)N2CCc3nc(COc4ccccc4)oc3C2)o1 [Example B61] |

Reference: patent US9090632B2, “Bicyclic oxazole and thiazole compounds and their use as allosteric modulators of mGluR5 receptors” (Vanderbilt University, priority 2010, dated 2015)
